According to patent publication US20230085307A1, “PYRIDAZINONE COMPOUND AND HERBICIDE” (NISSAN CHEMICAL CORPORATION, priority 2019, published 2023):

Tests used:
late watergrass = experiment: Test Example 1: herbicidal activity, application before weed generation under submerged conditions (Table 16, symbol A); assay type: in vivo, late watergrass (Echinochloa oryzicola)
Procedure, shortened: (§1)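 Emulsion formulation, water-diluted to set dose, was put onto the flooded surface (4 cm depth, alluvial soil) the same day weeds were sown and 2.5-leaf rice transplanted. After 3 weeks at 25-30 °C under glass, each species was rated 0 (≤5% kill) to 5 (≥90% kill).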

Japanese bulrush = experiment: Test Example 1: herbicidal activity, application before weed generation under submerged conditions (Table 16, symbol B); assay type: in vivo, Japanese bulrush (Schoenoplectus juncoides)
Procedure, shortened: as §1

chickweed = experiment: Test Example 5: herbicidal effect by foliage application, plastic box (Table 20, symbol P); assay type: in vivo, common chickweed (Stellaria media)
Procedure, shortened: (§2)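 Foliar spray test: emulsion formulation diluted in water to a set application rate, sprayed onto 14-day-old plants raised in diluvial soil at 25° C to 30° C under glass. Both herbicidal effect and crop effect rated visually three weeks later.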

Chinese sprangletop = experiment: Test Example 3: herbicidal effect by foliage application, Wagner pot (Table 18, symbol D); assay type: in vivo, chinese sprangletop (Leptochloa chinensis); conditions: 320 g/ha
Procedure, shortened: (§3)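 Plants were sown in alluvial soil held under 0.1–0.5 cm standing water and grown 14 days in a greenhouse at 25–30 °C. An emulsifiable formulation, water-diluted to the set dose, was then sprayed onto the foliage, and effects were scored three weeks later using previously defined criteria.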

persian speedwell = experiment: Test Example 5: herbicidal effect by foliage application, plastic box (Table 20, symbol R); assay type: in vivo, Persian speedwell (Veronica persica)
Procedure, shortened: as §2

green foxtail = experiment: Test Example 5: herbicidal effect by foliage application, plastic box (Table 20, symbol G); assay type: in vivo, green foxtail (Setaria viridis)
Procedure, shortened: as §2

wild oat = experiment: Test Example 5: herbicidal effect by foliage application, plastic box (Table 20, symbol I); assay type: in vivo, wild oat (Avena fatua)
Procedure, shortened: as §2

barnyard grass [1] = experiment: Test Example 3: herbicidal effect by foliage application, Wagner pot (Table 18, symbol H); assay type: in vivo, barnyard grass (Echinochloa crus-galli); conditions: 320 g/ha
Procedure, shortened: as §3

redroot pigweed = experiment: Test Example 5: herbicidal effect by foliage application, plastic box (Table 20, symbol N); assay type: in vivo, redroot pigweed (Amaranthus retroflexus)
Procedure, shortened: as §2

southern crabgrass = experiment: Test Example 5: herbicidal effect by foliage application, plastic box (Table 20, symbol F); assay type: in vivo, southern crabgrass (Digitaria ciliaris)
Procedure, shortened: as §2

oval-leafed pondweed = experiment: Test Example 1: herbicidal activity, application before weed generation under submerged conditions (Table 16, symbol C); assay type: in vivo, oval-leafed pondweed (Monochoria vaginalis)
Procedure, shortened: as §1

barnyard grass [2] = experiment: Test Example 5: herbicidal effect by foliage application, plastic box (Table 20, symbol H); assay type: in vivo, barnyard grass (Echinochloa crus-galli)
Procedure, shortened: as §2

windgrass = experiment: Test Example 5: herbicidal effect by foliage application, plastic box (Table 20, symbol L); assay type: in vivo, windgrass (Apera spica-venti); conditions: foliage application, AAH 320 g/ha, three weeks after application
Procedure, shortened: as §2

Italian ryegrass = experiment: Test Example 5: herbicidal effect by foliage application, plastic box (Table 20, symbol K); assay type: in vivo, Italian ryegrass (Lolium multiflorum)
Procedure, shortened: as §2

rice flat sedge = experiment: Test Example 3: herbicidal effect by foliage application, Wagner pot (Table 18, symbol E); assay type: in vivo, rice flat sedge (Cyperus iria); conditions: 320 g/ha
Procedure, shortened: as §3

lambsquarters = experiment: Test Example 5: herbicidal effect by foliage application, plastic box (Table 20, symbol O); assay type: in vivo, lambsquarters (Chenopodium album)
Procedure, shortened: as §2

blackgrass = experiment: Test Example 5: herbicidal effect by foliage application, plastic box (Table 20, symbol J); assay type: in vivo, blackgrass (Alopecurus myosuroides)
Procedure, shortened: as §2

velvetleaf = experiment: Test Example 5: herbicidal effect by foliage application, plastic box (Table 20, symbol M); assay type: in vivo, velvetleaf (Abutilon theophrasti)
Procedure, shortened: as §2

[3] = foliage application, AAH 320 g/ha, three weeks after application
[4] = amount of applied herbicide 320 g/ha
[5] = 320 g/ha, foliage application after 14-day growth, evaluated three weeks after application

For `COc1cccc(OC)c1-c1sc2ccccc2c1-c1c(O)c(C)nn(C)c1=O` [1-158], the “Herbicidal effect on A: late watergrass (grade 0-5)” value (late watergrass; 320 g/ha applied herbicide) was 0 (Herbicidal rate of 5% or less (almost no effect)), the “Herbicidal effect on B: Japanese bulrush (grade 0-5)” value (Japanese bulrush; 320 g/ha applied herbicide) was 2 (Herbicidal rate of 20% or more and less than 40%) and the “P: chickweed, herbicidal effect” value (chickweed; [3]) was 5 (Herbicidal rate of 90% or more (almost completely withered)). For the same molecule, the “herbicidal effect on D (Chinese sprangletop), rating 0-5” value (Chinese sprangletop) was 0 (Herbicidal rate of 5% or less (almost no effect)), the “R: persian speedwell, herbicidal effect” value (persian speedwell; [3]) was 5 (Herbicidal rate of 90% or more (almost completely withered)) and the “G: green foxtail, herbicidal effect” value (green foxtail; [3]) was 0 (Herbicidal rate of 5% or less (almost no effect)). The “I: wild oat, herbicidal effect” value (wild oat; [3]) was 0 (Herbicidal rate of 5% or less (almost no effect)), the “herbicidal effect on H (barnyard grass), rating 0-5” value (barnyard grass [1]) was 2 (Herbicidal rate of 20% or more and less than 40%) and the “N: redroot pigweed, herbicidal effect” value (redroot pigweed; [3]) was 0 (Herbicidal rate of 5% or less (almost no effect)). For the same molecule, the “F: southern crabgrass, herbicidal effect” value (southern crabgrass; [3]) was 0 (Herbicidal rate of 5% or less (almost no effect)), the “Herbicidal effect on C: oval-leafed pondweed (grade 0-5)” value (oval-leafed pondweed; 320 g/ha applied herbicide) was 0 (Herbicidal rate of 5% or less (almost no effect)) and the “H: barnyard grass, herbicidal effect” value (barnyard grass [2]; [3]) was 0 (Herbicidal rate of 5% or less (almost no effect)). The “L: windgrass, herbicidal effect” value (windgrass) was 0 (Herbicidal rate of 5% or less (almost no effect)), the “K: Italian ryegrass, herbicidal effect” value (Italian ryegrass; [3]) was 0 (Herbicidal rate of 5% or less (almost no effect)) and the “herbicidal effect on E (rice flat sedge), rating 0-5” value (rice flat sedge) was 0 (Herbicidal rate of 5% or less (almost no effect)). For the same molecule, the “O: lambsquarters, herbicidal effect” value (lambsquarters; [3]) was 0 (Herbicidal rate of 5% or less (almost no effect)), the “J: blackgrass, herbicidal effect” value (blackgrass; [3]) was 0 (Herbicidal rate of 5% or less (almost no effect)) and the “M: velvetleaf, herbicidal effect” value (velvetleaf; [3]) was 0 (Herbicidal rate of 5% or less (almost no effect)).

For `Cc1nn(C)c(=O)c(-c2c(-c3ccc(C#N)cc3)sc3c(Cl)cccc23)c1O` [4-031], the “Herbicidal effect, A: late watergrass” value (late watergrass; [4]) was 2 (Herbicidal rate of 20% or more and less than 40%), the “Herbicidal effect, B: Japanese bulrush” value (Japanese bulrush; [4]) was 0 (Herbicidal rate of 5% or less (almost no effect)) and the “herbicidal effect on P: chickweed (evaluation grade 0-5)” value (chickweed; [5]) was 5 (Herbicidal rate of 90% or more (almost completely withered)). For the same molecule, the “herbicidal effect on Chinese sprangletop (D)” value (Chinese sprangletop) was 3 (Herbicidal rate of 40% or more and less than 70%), the “herbicidal effect on R: persian speedwell (evaluation grade 0-5)” value (persian speedwell; [5]) was 0 (Herbicidal rate of 5% or less (almost no effect)) and the “herbicidal effect on G: green foxtail (evaluation grade 0-5)” value (green foxtail; [5]) was 2 (Herbicidal rate of 20% or more and less than 40%). For the same molecule, the “herbicidal effect on I: wild oat (evaluation grade 0-5)” value (wild oat; [5]) was 0 (Herbicidal rate of 5% or less (almost no effect)), the “herbicidal effect on barnyard grass (H)” value (barnyard grass [1]) was 3 (Herbicidal rate of 40% or more and less than 70%) and the “herbicidal effect on N: redroot pigweed (evaluation grade 0-5)” value (redroot pigweed; [5]) was 5 (Herbicidal rate of 90% or more (almost completely withered)). The “herbicidal effect on F: southern crabgrass (evaluation grade 0-5)” value (southern crabgrass; [5]) was 0 (Herbicidal rate of 5% or less (almost no effect)), the “Herbicidal effect, C: oval-leafed pondweed” value (oval-leafed pondweed; [4]) was 0 (Herbicidal rate of 5% or less (almost no effect)) and the “herbicidal effect on H: barnyard grass (evaluation grade 0-5)” value (barnyard grass [2]; [5]) was 0 (Herbicidal rate of 5% or less (almost no effect)). The “herbicidal effect on K: Italian ryegrass (evaluation grade 0-5)” value (Italian ryegrass; [5]) was 3 (Herbicidal rate of 40% or more and less than 70%), the “herbicidal effect on rice flat sedge (E)” value (rice flat sedge) was 5 (Herbicidal rate of 90% or more (almost completely withered)) and the “herbicidal effect on O: lambsquarters (evaluation grade 0-5)” value (lambsquarters; [5]) was 4 (Herbicidal rate of 70% or more and less than 90%). The “herbicidal effect on J: blackgrass (evaluation grade 0-5)” value (blackgrass; [5]) was 0 (Herbicidal rate of 5% or less (almost no effect)) and the “herbicidal effect on M: velvetleaf (evaluation grade 0-5)” value (velvetleaf; [5]) was 3 (Herbicidal rate of 40% or more and less than 70%).
